# Legend:
# Interstitial collagenase = biological target: T1, Interstitial collagenase (Homo sapiens, UniProt P03956); assay: Inhibition of collagenase-1 (MMP-1).
# T1 sequence (P03956 whole entry): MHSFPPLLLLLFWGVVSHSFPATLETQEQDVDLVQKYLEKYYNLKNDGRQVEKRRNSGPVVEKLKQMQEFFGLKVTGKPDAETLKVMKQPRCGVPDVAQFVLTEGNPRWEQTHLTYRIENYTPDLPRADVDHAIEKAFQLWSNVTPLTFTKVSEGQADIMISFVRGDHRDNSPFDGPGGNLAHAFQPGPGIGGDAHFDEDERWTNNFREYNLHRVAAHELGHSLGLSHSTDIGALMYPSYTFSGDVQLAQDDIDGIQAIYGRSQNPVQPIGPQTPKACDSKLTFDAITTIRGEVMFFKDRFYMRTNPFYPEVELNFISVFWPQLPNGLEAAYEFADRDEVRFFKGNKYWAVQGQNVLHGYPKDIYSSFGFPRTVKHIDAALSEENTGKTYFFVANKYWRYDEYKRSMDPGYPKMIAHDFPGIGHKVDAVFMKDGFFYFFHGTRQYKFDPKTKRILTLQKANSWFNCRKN
# Stromelysin-1 [1] = biological target: T2, Stromelysin-1 (Homo sapiens, UniProt P08254); assay: Inhibition of stromelysin-1 (MMP-3).
# [2] = biological target: T3, 72 kDa type IV collagenase (Homo sapiens, UniProt P08253); assay: Inhibition of gelatinase-A (MMP-2) at a concentration of 1 uM
# Target sequence in this assay (P08253 110-660 limits assumed): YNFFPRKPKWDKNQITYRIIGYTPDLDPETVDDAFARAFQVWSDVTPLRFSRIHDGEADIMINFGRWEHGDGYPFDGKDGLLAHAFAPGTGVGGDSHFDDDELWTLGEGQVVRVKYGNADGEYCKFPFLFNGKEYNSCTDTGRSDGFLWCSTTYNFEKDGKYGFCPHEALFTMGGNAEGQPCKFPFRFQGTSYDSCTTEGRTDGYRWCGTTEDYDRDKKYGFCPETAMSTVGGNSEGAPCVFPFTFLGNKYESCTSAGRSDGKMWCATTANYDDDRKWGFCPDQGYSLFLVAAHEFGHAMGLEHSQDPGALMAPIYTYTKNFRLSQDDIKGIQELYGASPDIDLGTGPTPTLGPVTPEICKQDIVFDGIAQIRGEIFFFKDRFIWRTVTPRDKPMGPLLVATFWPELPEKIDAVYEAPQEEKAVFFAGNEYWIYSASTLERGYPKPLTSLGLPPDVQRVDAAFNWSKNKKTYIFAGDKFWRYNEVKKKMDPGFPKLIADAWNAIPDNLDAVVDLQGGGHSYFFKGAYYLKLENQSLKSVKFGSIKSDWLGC
# [3] = biological target: T3, 72 kDa type IV collagenase; assay: Inhibition of gelatinase-A (MMP-2).
# Target sequence in this assay (P08253 whole entry): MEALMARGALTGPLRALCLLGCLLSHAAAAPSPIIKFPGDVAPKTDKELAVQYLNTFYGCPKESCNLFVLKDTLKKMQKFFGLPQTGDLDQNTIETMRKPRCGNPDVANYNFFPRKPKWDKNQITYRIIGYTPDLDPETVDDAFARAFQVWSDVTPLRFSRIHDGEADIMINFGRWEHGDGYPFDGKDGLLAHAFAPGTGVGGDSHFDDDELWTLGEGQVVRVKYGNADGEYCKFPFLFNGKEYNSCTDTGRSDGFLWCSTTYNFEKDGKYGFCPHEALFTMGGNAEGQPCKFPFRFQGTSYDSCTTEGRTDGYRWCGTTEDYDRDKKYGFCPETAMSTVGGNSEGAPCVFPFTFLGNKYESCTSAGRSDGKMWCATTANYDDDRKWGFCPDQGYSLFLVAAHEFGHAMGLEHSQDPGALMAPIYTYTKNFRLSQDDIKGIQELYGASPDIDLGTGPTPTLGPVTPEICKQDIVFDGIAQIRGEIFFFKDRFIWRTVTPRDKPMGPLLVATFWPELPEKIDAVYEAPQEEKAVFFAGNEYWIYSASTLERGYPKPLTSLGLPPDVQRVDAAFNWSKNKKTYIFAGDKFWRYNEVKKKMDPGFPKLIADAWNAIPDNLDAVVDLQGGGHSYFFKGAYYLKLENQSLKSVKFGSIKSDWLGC
# [4] = biological target: T3, 72 kDa type IV collagenase; assay: Inhibition of gelatinase-A (MMP-2)
# Target sequence in this assay (P08253 whole entry): as above
# Stromelysin-1 [5] = biological target: T2, Stromelysin-1; assay: Inhibition of stromelysin-1 (MMP-3)
# T2 sequence (P08254 whole entry): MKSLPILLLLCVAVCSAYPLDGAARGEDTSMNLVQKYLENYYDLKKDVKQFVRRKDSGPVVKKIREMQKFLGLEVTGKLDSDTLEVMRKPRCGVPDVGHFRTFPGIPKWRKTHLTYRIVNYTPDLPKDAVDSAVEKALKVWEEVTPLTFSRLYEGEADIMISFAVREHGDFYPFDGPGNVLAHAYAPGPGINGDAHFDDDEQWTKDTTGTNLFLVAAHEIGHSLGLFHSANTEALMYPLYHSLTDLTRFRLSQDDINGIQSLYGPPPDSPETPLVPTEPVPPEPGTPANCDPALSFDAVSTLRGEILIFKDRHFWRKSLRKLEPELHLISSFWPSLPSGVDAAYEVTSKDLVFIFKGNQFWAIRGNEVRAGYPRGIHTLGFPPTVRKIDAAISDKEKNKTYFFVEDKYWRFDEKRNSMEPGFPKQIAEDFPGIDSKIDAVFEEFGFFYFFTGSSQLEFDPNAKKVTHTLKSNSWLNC
Structure (SMILES),Ki (Interstitial collagenase),Ki (Stromelysin-1 [1]),inhibition [2],Ki [3],also measured
CC(C)C[C@H](NC(=O)[C@H](Cc1ccccc1)OP(=O)(O)CCCCN1C(=O)c2ccccc2C1=O)C(=O)NCc1ccccc1,–,–,–,–,IC50 (Interstitial collagenase): > 32000 nM; IC50 (Stromelysin-1 [1]): > 200000 nM
CC(C)C[C@H](NP(=O)(O)CCCCN1C(=O)c2ccccc2C1=O)C(=O)N[C@@H](Cc1c[nH]c2ccccc12)C(=O)NCc1ccccc1,–,–,–,–,IC50 (Interstitial collagenase): 50 nM; IC50 (Stromelysin-1 [1]): 260 nM
CC(C)C[C@H](NC(=O)[C@H](Cc1ccccc1)CP(=O)(O)CCCCN1C(=O)c2ccccc2C1=O)C(=O)NCc1ccccc1,–,–,–,–,IC50 (Interstitial collagenase): 4100 nM; IC50 (Stromelysin-1 [1]): 430 nM
CC(C)C[C@H](NC(=O)[C@H](Cc1ccccc1)NP(=O)(O)CCCCN1C(=O)c2ccccc2C1=O)C(=O)NCc1ccccc1,–,–,–,–,IC50 (Interstitial collagenase): 30000 nM; IC50 (Stromelysin-1 [1]): 2800 nM
CC(C)C[C@H](NC(=O)[C@H](CCc1ccccc1)CP(=O)(O)CNC(=O)CN1C(=O)c2ccccc2C1=O)C(=O)Nc1ccccc1,–,410 nM,–,–,–
CCOC(=O)NCCCCP(=O)(O)C[C@@H](CCc1ccccc1)C(=O)N[C@@H](CC(C)C)C(=O)Nc1ccccc1,≥ 10000 nM,16 nM,94%,–,–
CC(C)C[C@H](NC(=O)[C@H](CCc1ccccc1)CP(C)(=O)O)C(=O)Nc1ccccc1,≥ 10000 nM,1500 nM,–,570 nM,–
CC(C)C[C@H](NC(=O)[C@H](CCc1ccccc1)CP(=O)(O)CCC(=O)NCc1ccccc1)C(=O)Nc1ccccc1,≥ 10000 nM,–,–,–,Ki (Stromelysin-1 [5]): 540 nM
CC(C)C[C@H](NC(=O)[C@H](CCc1ccccc1)CP(=O)(O)CCC(=O)NCCc1ccccc1)C(=O)Nc1ccccc1,≥ 10000 nM,170 nM,58%,–,–
CC(C)C[C@H](NC(=O)[C@H](CCc1ccccc1)CP(=O)(O)CCCCNC(=O)Oc1ccccc1)C(=O)Nc1ccccc1,≥ 10000 nM,56 nM,73%,–,–
COc1ccccc1CC[C@H](CP(=O)(O)CCCCN1C(=O)c2ccccc2C1=O)C(=O)N[C@@H](CC(C)C)C(=O)Nc1ccccc1,≥ 10000 nM,440 nM,–,4400 nM,–
CC(C)C[C@H](NC(=O)[C@H](CCc1ccccc1)CP(=O)(O)CCCCNC(=O)Nc1ccccc1)C(=O)Nc1ccccc1,≥ 10000 nM,70 nM,85%,–,–
CC(C)C[C@H](NC(=O)[C@H](CCc1ccccc1)CP(=O)(O)CCCCNC(=O)[C@H]1CCCN1C(=O)c1ccccc1)C(=O)Nc1ccccc1,≥ 10000 nM,24 nM,89%,–,–
COc1ccc(CC[C@H](CP(=O)(O)CCCCN2C(=O)c3ccccc3C2=O)C(=O)N[C@@H](CC(C)C)C(=O)Nc2ccccc2)cc1,≥ 10000 nM,2.3 nM,–,12 nM,–
CC(C)C[C@H](NC(=O)[C@H](CCc1ccccc1)CP(=O)(O)CCCCN1C(=O)c2ccccc2C1=O)C(=O)Nc1ccccc1,≥ 10000 nM,–,–,20 nM,–
CC(=O)N1CCC[C@H]1C(=O)NCCCCP(=O)(O)C[C@@H](CCc1ccccc1)C(=O)N[C@@H](CC(C)C)C(=O)Nc1ccccc1,≥ 10000 nM,62 nM,–,6.1 nM,–
COC(=O)CCP(=O)(O)C[C@@H](CCc1ccccc1)C(=O)N[C@@H](CC(C)C)C(=O)Nc1ccccc1,≥ 10000 nM,520 nM,–,1300 nM,–
CC(C)C[C@H](NC(=O)[C@H](CCc1ccccc1)CP(=O)(O)CCCCNC(=O)[C@@H]1CCCN1C(=O)c1ccccc1)C(=O)Nc1ccccc1,≥ 10000 nM,13 nM,–,2.1 nM,–
CC(C)C[C@H](NC(=O)[C@H](CCc1ccccc1)CP(=O)(O)CCC(=O)Nc1ccccc1)C(=O)Nc1ccccc1,≥ 10000 nM,470 nM,60%,–,–

# The next lines start with results.
Ki (Interstitial collagenase),Ki (Stromelysin-1 [1]),inhibition [2],Ki [3],Structure (SMILES),also measured
≥ 10000 nM,63 nM,86%,–,CC(C)C[C@H](NC(=O)[C@H](CCc1ccccc1)CP(=O)(O)CCCCNC(=O)OCc1ccccc1)C(=O)Nc1ccccc1,–
≥ 10000 nM,26 nM,92%,–,CC(=O)N1CCC[C@@H]1C(=O)NCCCCP(=O)(O)C[C@@H](CCc1ccccc1)C(=O)N[C@@H](CC(C)C)C(=O)Nc1ccccc1,–
≥ 10000 nM,130 nM,87%,–,CNC(=O)NCCCCP(=O)(O)C[C@@H](CCc1ccccc1)C(=O)N[C@@H](CC(C)C)C(=O)Nc1ccccc1,–
≥ 10000 nM,50 nM,96%,–,CC(C)C[C@H](NC(=O)[C@H](CCc1ccccc1)CP(=O)(O)CCCCNC(=O)NCc1ccccc1)C(=O)Nc1ccccc1,–
≥ 10000 nM,5.5 nM,–,7.3 nM,CC(C)C[C@H](NC(=O)[C@H](CCc1ccccc1)CP(=O)(O)CCCCN1Cc2ccccc2C1=O)C(=O)Nc1ccccc1,–
≥ 10000 nM,54 nM,90%,–,COC(=O)NCCCCP(=O)(O)C[C@@H](CCc1ccccc1)C(=O)N[C@@H](CC(C)C)C(=O)Nc1ccccc1,–
≥ 10000 nM,5.7 nM,–,26 nM,CC(C)C[C@H](NC(=O)[C@H](CCc1ccccc1)CP(=O)(O)CCCCNC(=O)c1ccccc1)C(=O)Nc1ccccc1,–
≥ 10000 nM,3700 nM,13%,–,CC(C)C[C@H](NC(=O)[C@H](CCc1ccccc1)CP(=O)(O)CCCCN)C(=O)Nc1ccccc1,–
≥ 10000 nM,670 nM,46%,–,CC(C)C[C@H](NC(=O)[C@H](CCc1ccccc1)CP(=O)(O)CCC(=O)NCCCc1ccccc1)C(=O)Nc1ccccc1,–
≥ 10000 nM,17 nM,–,–,CCNC(=O)NCCCCP(=O)(O)C[C@@H](CCc1ccccc1)C(=O)N[C@@H](CC(C)C)C(=O)Nc1ccccc1,Ki [4]: 19 nM
≥ 10000 nM,30 nM,–,130 nM,CC(C)C[C@H](NC(=O)[C@H](CCc1ccccc1)CP(=O)(O)CCCCNC(=O)Cc1ccccc1)C(=O)Nc1ccccc1,–
≥ 10000 nM,4.5 nM,–,4.8 nM,CC(C)C[C@H](NC(=O)[C@H](CCc1ccccc1)CP(=O)(O)C/C=C/CN1C(=O)c2ccccc2C1=O)C(=O)Nc1ccccc1,–
≥ 10000 nM,2.5 nM,–,2.1 nM,COc1cccc(CC[C@H](CP(=O)(O)CCCCN2C(=O)c3ccccc3C2=O)C(=O)N[C@@H](CC(C)C)C(=O)Nc2ccccc2)c1,–

# Reference: ChEMBL document CHEMBL1128968, “Phosphinic acid inhibitors of matrix metalloproteinases” (Bioorg Med Chem Lett, 1996)
